Laboratory results as given in paper PMC11579541, “In vitro, in vivo, and in silico approaches for evaluating the preclinical DMPK profiles of ammoxetine, a novel chiral serotonin and norepinephrine reuptake inhibitor” (Frontiers in Pharmacology, 2024).
Several values for one entry are separate records, joined by “and”; a condition that tells them apart may be missing. Equal values may be shown once.

Experiments:
[1] = Hepatic microsome stability assay, RLM; assay type: in vitro ADME, rat; conditions: rat, liver microsomes, pH 7.4; 1 μmol/L, 0.2 g/L microsomes, NADPH
Experimental: (§1) A hepatic microsome stability assay was conducted to investigate the metabolic disposition of ammoxetine. In this assay, 100 μL of ammoxetine (2.5 μmol/L) was incubated at 37°C with 100 μL of liver microsomes (RLM, DLM, MLM, or HLM) formulated in a 5 mmol/L dipotassium hydrogen phosphate (K2HPO4) buffer at pH 7.4. The concentration of microsomes was 0.5 g/L. To initiate the incubations, 50 μL of NADPH solution preincubated at 37°C was added. […] Parallel triplicate samples were prepared for each time point, including 0, 2, 5, 10, 15, 30, 60, 90, and 120 min. To stop the reactions at each time point, 250 μL of ice-cold precipitating agent (acetonitrile/methanol, 1:1, v/v) containing 500 ng/mL of L-phencynonate (IS) was added to the incubation mixture. The samples were vortexed for 2 min at 4°C and then centrifuged at 13,800×g for 10 min. The supernatants were analyzed using an LC-MS-MS approach. […]
(§2) In Formula 3, t1/2 (min) represents the half-life of ammoxetine in liver microsomes. It is calculated by dividing −0.693 by the resulting slope (k e) obtained from a natural logarithm plot of the remaining concentration of ammoxetine against incubation time. […]

RLM = test: Hepatic microsome stability assay, RLM; assay type: in vitro ADME, rat; conditions: predicted hepatic clearance
Experimental: as §1, §2

MLM = test: Hepatic microsome stability assay, MLM; assay type: in vitro ADME, monkey; conditions: predicted hepatic clearance
Experimental: as §1, §2

[2] = Hepatic microsome stability assay, MLM; assay type: in vitro ADME, monkey; conditions: monkey, liver microsomes, pH 7.4; 1 μmol/L, 0.2 g/L microsomes, NADPH
Experimental: as §1, §2

CYP 2C9 = CYP 2C9 (Homo sapiens, UniProt P11712); test: Phenotyping with recombinant human CYP 2C9; assay type: in vitro ADME; set-up: purchased BD (Woburn, USA); conditions: 5 μmol/L, 25 pmol/mL CYP, 1 h
Experimental: (§3) Ammoxetine (final concentration 5 μmol/L) was incubated with recombinant human CYP 3A4, CYP 1A2, CYP 2C9, CYP 2C19, and CYP 2D6 (final concentration 25 pmol/mL) in a 5 mmol/L K2HPO4 buffer at pH 7.4. The incubations were performed in quintuplicate. NADPH (final concentration 1 mmol/L) was added to initiate the incubation process. The mixture was then incubated at 37°C for 1 h. To stop the reaction, 200 μL of ice-cold acetonitrile/methanol (1:1, v/v) containing 500 ng/mL of L-phencynonate (IS) was added. The samples were vortexed for 2 min and centrifuged at 13,800×g and 4°C for 10 min. The supernatants obtained were analyzed using an LC-MS-MS method. To establish appropriate controls, zero-time controls and blank controls in the absence of NADPH were set up in parallel.

CYP 1A2 = target: T1, CYP 1A2 (Homo sapiens, UniProt P05177); test: Phenotyping with recombinant human CYP 1A2; assay type: in vitro ADME; set-up: purchased BD (Woburn, USA); conditions: 5 μmol/L, 25 pmol/mL CYP, 1 h
T1 sequence (P05177 1-516): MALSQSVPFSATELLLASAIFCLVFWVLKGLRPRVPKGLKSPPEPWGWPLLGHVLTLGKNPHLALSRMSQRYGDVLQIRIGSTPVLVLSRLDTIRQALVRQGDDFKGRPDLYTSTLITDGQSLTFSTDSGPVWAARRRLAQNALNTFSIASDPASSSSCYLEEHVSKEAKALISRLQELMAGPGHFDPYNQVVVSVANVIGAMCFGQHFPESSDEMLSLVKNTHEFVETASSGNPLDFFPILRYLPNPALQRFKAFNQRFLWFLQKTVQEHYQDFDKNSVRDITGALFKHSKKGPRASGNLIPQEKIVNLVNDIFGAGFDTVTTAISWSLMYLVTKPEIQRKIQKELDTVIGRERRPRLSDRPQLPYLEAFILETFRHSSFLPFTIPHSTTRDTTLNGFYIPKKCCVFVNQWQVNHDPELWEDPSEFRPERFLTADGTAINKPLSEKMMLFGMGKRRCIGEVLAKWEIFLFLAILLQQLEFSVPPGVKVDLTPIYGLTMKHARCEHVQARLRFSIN
Experimental: as §3

CYP 3A4 = CYP 3A4 (Homo sapiens, UniProt P08684); test: Phenotyping with recombinant human CYP 3A4; assay type: in vitro ADME; set-up: purchased BD (Woburn, USA); conditions: 5 μmol/L, 25 pmol/mL CYP, 1 h
Experimental: as §3

Sequence of CYP 3A4 (P08684 whole entry): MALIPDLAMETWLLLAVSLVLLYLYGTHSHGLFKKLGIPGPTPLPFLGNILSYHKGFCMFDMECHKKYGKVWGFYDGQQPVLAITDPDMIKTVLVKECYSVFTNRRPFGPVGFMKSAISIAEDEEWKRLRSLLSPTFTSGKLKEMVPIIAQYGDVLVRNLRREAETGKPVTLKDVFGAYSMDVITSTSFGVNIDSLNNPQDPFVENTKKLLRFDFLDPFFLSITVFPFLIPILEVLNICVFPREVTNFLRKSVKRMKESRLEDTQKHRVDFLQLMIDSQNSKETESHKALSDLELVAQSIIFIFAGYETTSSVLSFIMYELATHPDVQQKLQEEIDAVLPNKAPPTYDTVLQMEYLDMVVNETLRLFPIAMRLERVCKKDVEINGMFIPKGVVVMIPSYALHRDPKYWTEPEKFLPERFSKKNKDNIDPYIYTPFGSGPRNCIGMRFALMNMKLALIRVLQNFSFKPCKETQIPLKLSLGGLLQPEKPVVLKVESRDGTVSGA
Sequence of CYP 2C9 (P11712 whole entry): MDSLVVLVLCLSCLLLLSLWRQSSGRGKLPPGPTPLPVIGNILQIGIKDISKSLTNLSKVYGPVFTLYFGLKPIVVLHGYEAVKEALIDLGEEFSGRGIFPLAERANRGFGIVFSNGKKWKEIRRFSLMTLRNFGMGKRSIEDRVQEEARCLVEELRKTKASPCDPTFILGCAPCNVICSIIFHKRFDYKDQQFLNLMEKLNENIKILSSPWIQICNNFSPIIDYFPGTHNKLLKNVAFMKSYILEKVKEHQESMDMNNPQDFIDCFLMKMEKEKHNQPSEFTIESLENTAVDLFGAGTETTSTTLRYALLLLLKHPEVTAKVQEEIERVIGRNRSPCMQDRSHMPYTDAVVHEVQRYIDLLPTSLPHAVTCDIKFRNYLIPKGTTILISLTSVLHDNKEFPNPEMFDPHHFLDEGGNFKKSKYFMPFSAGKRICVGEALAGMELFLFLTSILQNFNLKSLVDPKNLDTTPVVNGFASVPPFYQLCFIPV

half-life at 1 μmol/L [1]: 12.8 ± 0.99 min
CL h (RLM): 49.58 ± 0.39 mL/min/kg
CL h (MLM): 40.73 ± 0.04 mL/min/kg
half-life at 1 μmol/L [2]: 7.57 ± 0.12 min
Transformation ratio% (CYP 2C9): 13.02±7.14%
residuary concentration of ammoxetine, Mean±SD (CYP 2C9): 5.96±0.49
Transformation ratio% (CYP 1A2): 14.04±2.29%
residuary concentration of ammoxetine, Mean±SD (CYP 1A2): 5.89±0.16
Transformation ratio% (CYP 3A4): 24.49±3.65% and 24.49%
residuary concentration of ammoxetine, Mean±SD (CYP 3A4): 5.18±0.25
Compound: CNCC[C@H](Oc1cccc2c1OCO2)c1cccs1 [ammoxetine]
